Source: patent US6784155B1, “Inhibitor and stimulator of stem cell proliferation and uses thereof” (Wellstat Therapeutics Corporation, priority 1996, dated 2004)
No end group written: not given here. *: point of attachment. Biotin = O=C1N[C@H]2[C@H](CS[C@H]2CCCCC(=O)*)N1; C4 linker = not defined here

Assays:
CFU-MIX [1] = experiment: CFU-MIX cycling assay in vitro (Ara C kill); assay type: cell-based, mouse
Method: A similar assay can be performed in vitro, using the cycling status of CFU-MIX instead of CFU-S. The assay is performed as described above for the CFU-S assay except that cytosine arabinoside (Ara C, 30 micrograms/ml) is used as the cycle-specific toxic agent instead of high dose tritiated thymidine (see B. I. Lord in Haemopoiesis—A Practical Approach, N. G. Testa and G. Molineux (Eds.), IRL Press 1993; Pragnell et al. in Culture of Hematopoietic Cells, R. I. Freshney, I. B. Pragnell and M. G. Freshney (Eds.), Wiley Liss 1994) and a mouse strain with high endogenous cycling rates (Balb/c) is used instead of testosterone-treated BDFI mice.
(§1) 24 hours later (Day 1), varying doses of peptide 43-55 or vehicle were injected i.v. Bone marrow was harvested on Day 2 and the […] cycling assay conducted as in Example 14. Specifically, mice were sacrificed and single cell bone marrow suspensions prepared from the femurs. The cells were washed once and the concentration adjusted to 5×10^6 cells/ml in Fischer medium. For each test condition, one milliliter of cells was added to each of two polypropylene tubes. The tubes were incubated at 37° C. for 3 hours without (“Control”) or with (“Experimental”) the appropriate concentration of test substance. At the end of the incubation, 30 μg/ml of cytosine arabinoside (“Ara C” (Sigma)) was added to half of the tubes and the same volume of Fischer's medium was added to the others. The tubes were incubated for a further 1 hour at 37° C., after which they were placed on ice and washed twice with cold Fischer medium.
(§2) The cells were readjusted to 5×10^4-10^6/ml in Fischer's medium and 0.5 ml of cell suspension added to 5 ml of Methocult M3430 methylcellulose medium (Stem Cell Technologies, Vancouver, British Columbia). The mixture was vigorously mixed with a vortex and 1 ml was dispensed into each of five 35 mm dishes. The 35 mm dishes were in turn placed in a covered 150 mm dish with one open 35 mm dish containing sterile water. CFU-MIX colonies were counted with the use of an inverted microscope after 7 days of incubation at 37° C.
Differences in colony number between the tubes treated with medium versus the tubes treated with Ara C represent the percentage of cells in cycle under that condition according to the formula:
a=Number of CFU-MIX from tube incubated with medium alone
b=Number of CFU-MIX from tube incubated with Ara C

CFU-MIX [2] = experiment: Stimulation of cycling of quiescent murine stem cells, CFU-MIX cycling assay in vitro; assay type: cell-based, mouse
Method: Microgram per milliliter doses of hemoglobin chains, myoglobin and peptides were assayed for stimulation of quiescent stem cells. Bone marrow was obtained from untreated B6D2F1 tested in the CFU-MIX cycling assay as in Example 24. Stem cells isolated from untreated B6D2F1 mice are normally slowly cycling unless stimulated (e.g. by testosterone propionate (cf. Example 1) or chemotherapy such as 5FU (cf. Example 4)) to enter into cycle.

CFU-GEMM [3] = experiment: CFU-GEMM cycling assay, mobilized human peripheral blood; assay type: cell-based
Method: Peripheral blood was obtained from breast cancer patients undergoing peripheral stem cell mobilization with cyclophosphamide and G-CSF according to standard protocols. Red blood cells were removed with FicolU Hypaque (cells were diluted 1:1 with IMDM and 20 ml layered on top of 16 ml Ficoll and centrifuged at 800 g for 30 minutes; mononuclear cells were removed from the interphase and washed twice in IMDM). In one case mononuclear cells were stored frozen in liquid nitrogen before assay. The mononuclear cells were plated for the CFU-GEMM cycling assay as in Example 26 except that 2.5-5×10^5 cells were plated per dish.

CFU-GEMM [4] = experiment: CFU-GEMM cycling assay, human umbilical cord blood cells; assay type: cell-based; conditions: Table 32, cord blood mononuclear cells
Method: In order to investigate the ability of purified INPROL from porcine bone marrow to affect cycling on human progenitors, umbilical cord blood cells were obtained. Either the total mononuclear cell fraction obtained after separation on Ficoll or the CD34^+ fraction obtained after fractionation on anti-CD34 affinity columns (CellPro Inc.) was used. Cells were incubated for 48 hours in vitro in the presence of interleukin 3 (IL-3) and stem cell factor (SCF) (100 ng/ml each) in order to ensure that the early stem cells were in cycle. After this preincubation, cycling assays were conducted as described in Example 14 for the mouse except that CFU-GEMM (instead of CFU-MIX) were counted on Day 18 after plating.
The human cord blood CFU-GEMM cycling assay was conducted as in Example 19. Specifically, mononuclear cells were isolated from human umbilical cord blood cells and adjusted to 24×10^4 cells/ml in IMDM tissue culture medium supplemented with 10% FBS, 100 ng/ml kit ligand and 100 ng/ml human IL-3. The cells were incubated for 48 hours at 37° C.
After incubation, cells were washed and resuspended in serun-free NDM at a concentration of 10^6 cells/ml. One ml of cells was added to each of two polypropylene tubes per condition and the cycling assay conducted as in Example 24 for mouse bone marrow. After the Ara C incubation cells were washed with cold NDM and adjusted to 10,000 to 20,000 cells per 0.5 ml IMDM and mixed with 5 ml Methocult H4433 (Stem Cell Technologies). Alternatively, Methocult H4435 methylcellulose medium (Stem Cell Technologies) was used in which case the cell concentration was adjusted to 2500-5000 cells per 0.5 ml IMDM. The cells were plated as in Example 24 and CFU-GEMM colonies scored on days 14-18.

CFU-MIX [5] = experiment: CFU-MIX cycling assay after in vivo injection into testosterone or 5FU treated mice; parameters: species or system mouse
Method: In order to test the ability of purified porcine hemoglobin chains to act in vivo, BDF1 mice were injected with testosterone propionate as described in Example 1. Twenty four hours later, mice received 500 ng of either pINPROL, porcine hemoglobin alpha chain (purified from peripheral red blood cells as in FIG. 21), porcine beta chain (purified from peripheral red blood cells as in FIG. 21) or the equivalent volume of carrier intravenously. Forty eight hours later the bone marrow from each mouse was harvested and the CFU-MIX assay conducted as described in Example 14.
To assess the stem cell inhibitory activity of peptide 43-55 in vivo, B6D2 F1 mice were pre-treated with testosterone propionate as described in Example 1 or with 5FU. Specifically, testosterone propionate (100 mg/kg body weight) was injected i.p. on Day 0 into mice. Alternatively, mice were injected on Day 0 with 5FU ([…] body weight).
as §1, §2
Differences in colony number between the tubes treated with medium versus the tubes treated with Ara C represent the percentage of cells in cycle under that condition according to the formula: […]

[6] = Table 39, untreated B6D2F1 bone marrow, 10^−3M
[7] = Table 39, untreated B6D2F1 bone marrow, 10^−5M
[8] = Table 26, Balb/c bone marrow, 10^−5M
[9] = Table 26, Balb/c bone marrow, 10^−7M
[10] = Table 26, Balb/c bone marrow, 10^−9M
[11] = Table 13, bone marrow from Balb/c mice, 100 ng/ml
[12] = Table 38, untreated B6D2F1 bone marrow, concentration printed only as (μg/ml)
[13] = Table 9, bone marrow from Balb/c mice, 100 ng/ml
[14] = Table 10, testosterone-treated BDF1 mice, 500 ng intravenously (footnote: 100 ng/ml), marrow 48 hours later

Molecule: 1-94 fragment: purified formic-acid cleaved fragment, amino acids 1-94 of human alpha hemoglobin chain
- % Kill (CFU-MIX [1]; Table 20, Balb/c bone marrow, 100 ng/ml): 0%

Molecule: CC(C)C[C@@H](NC(=O)[C@H](Cc1ccccc1)NC(=O)CNC(=O)[C@@H](C)NC(=O)[C@@H](N)Cc1ccc(O)cc1)C(=O)O [DADLE, reference compound]
- % Kill (CFU-MIX [2]; [6]): 0%
- % Kill (CFU-MIX [2]; [7]): 0%

Molecule: C[C@@H](NC(=O)[C@@H](N)Cc1ccc(O)cc1)C(=O)NCC(=O)N(C)[C@@H](Cc1ccccc1)C(=O)NCCO [DAMGO, (D-Ala^2,N-Me-Phe^4,Gly-ol^5)-Enkephalin, reference compound]
- % Kill (CFU-MIX [1]; [8]): 15%
- % Kill (CFU-MIX [1]; [9]): 0%
- % Kill (CFU-MIX [1]; [10]): 38%
- % Kill (CFU-GEMM [3]; Table 35, Patient #2, 10^−7M): 15%
- % Kill (CFU-GEMM [3]; Table 35, Patient #2, 10^−9M): 0%

Molecule: CN1CC[C@]23c4c5ccc(O)c4O[C@H]2[C@@H](O)C=C[C@H]3[C@H]1C5 [Morphine, morphine, reference compound]
- % Kill (CFU-MIX [1]; Table 25, Balb/c bone marrow, 10^−7M): 10%
- % Kill (CFU-MIX [1]; Table 25, Balb/c bone marrow, 10^−9M): 15%
- % Kill (CFU-MIX [1]; Table 25, Balb/c bone marrow, 10^−11M): 32%
- % Kill (CFU-GEMM [3]; Table 35, Patient #2, 10^−7M): 24%
- % Kill (CFU-GEMM [3]; Table 35, Patient #2, 10^−9M): 0%

Molecule: C=CCN1CC[C@]23c4c5ccc(O)c4O[C@H]2C(=O)CC[C@@]3(O)[C@H]1C5 [Naloxone, naloxone, reference compound]
- effect of naloxone itself on the assay (CFU-MIX [1]; 10^−5-10^−7M): no effect
- % Kill (CFU-MIX [1]; Table 28, naloxone alone, 10^−5M final concentration): 36%
- % Kill (CFU-MIX [1]; Table 30, 10^−10M): 0%

Molecule: (D-Arg^2, Lys^4)-Dermorphin-(1-4)-amide [DALDA, reference compound]
- % Kill (CFU-MIX [1]; [8]): 47%
- % Kill (CFU-MIX [1]; [9]): 0%
- % Kill (CFU-MIX [1]; [10]): 34%
- % Kill (CFU-MIX [2]; [6]): 41%
- % Kill (CFU-MIX [2]; [7]): 24%

Molecule: Biotinylated alpha chain: human hemoglobin alpha chain from hemoglobin treated with NHS LC Biotin
- % Kill (CFU-MIX [1]; [11]): 7%

Molecule: Biotinylated beta chain: human hemoglobin beta chain from hemoglobin treated with NHS LC Biotin
- % Kill (CFU-MIX [1]; [11]): 25%

Molecule: Biotinylated peptide 43-55: Peptide 43-55 with biotin linked via a C4 carbon linker to the N-terminal NH2 of Phe43 ({Biotin-C4 linker}-FPHFDLSHGSAQV; reading uncertain; UniProt P69905 44-56, looked up, fragment)
- % Kill (CFU-MIX [1]; Table 24, 1 ng/ml): 15%

Molecule: DALTNAVAHVDDMPNALSA [Peptide 64-82, amino acids 64-82 of human alpha hemoglobin]
- % Kill (CFU-MIX [1]; Table 18, 100 ng/ml): 9%
- % Kill (CFU-MIX [2]; Table 42, untreated B6D2F1 bone marrow, 1 μg/ml): 25%
- % Kill (CFU-GEMM [4]; 1 ng/ml): 21%
- % Kill (CFU-GEMM [4]; 10 ng): 20%
- % Kill (CFU-GEMM [4]; 100 ng/ml): 39%

Molecule: H-D-Phe-Cys-Tyr-D-Trp-Orn-Thr-Pen-Thr-NH2 [CTOP, reference compound]
- effect of CTOP itself on the assay (CFU-MIX [1]; 10^−7 M): no effect
- % Kill (CFU-MIX [1]; Table 31, CTOP alone, 10^−7M final concentration): 36%

Molecule: Human beta chain: purified human hemoglobin beta chain
- % Kill (CFU-MIX [1]; Table 11, bone marrow from Balb/c mice, 100 ng/ml): 41%
- % Kill (CFU-MIX [1]; [11]): 55%
- % Kill (CFU-MIX [2]; [12]): 55%

Molecule: Human delta chain: purified human hemoglobin delta chain
- % Kill (CFU-MIX [1]; Table 12, bone marrow from Balb/c mice, 100 ng/ml): −4%
- % Kill (CFU-MIX [1]; Table 29, 100 ng/ml, alone): 10%

Molecule: Human hemoglobin: human hemoglobin
- % Kill (CFU-MIX [5]; Table 14, testosterone-treated BDF1 mice, 500 ng/mouse): −31%

Molecule: Leu-Val-Val-Tyr-Pro-Trp-Thr-Gln-Arg-Phe (LVVYPWTQRF; printed: Leu-Val-Val-Tyr-Pro-Trp-Thr-Gln-Arg-Phe) [Hemorphin 10, reference compound]
- % Kill (CFU-MIX [1]; Table 18, 100 ng/ml): 1%
- % Kill (CFU-MIX [1]; Table 28, 100 ng/ml, alone): 0%

Molecule: Porcine alpha chain: porcine hemoglobin alpha chain purified from peripheral red blood cells as in FIG. 21
- % Kill (CFU-MIX [1]; [13]): −4%
- % Kill (CFU-MIX [5]; [14]): 5%

Molecule: Porcine beta chain: porcine hemoglobin beta chain purified from peripheral red blood cells as in FIG. 21
- % Kill (CFU-MIX [1]; [13]): −14%
- % Kill (CFU-MIX [5]; [14]): −5%

Molecule: VVYPWTQR [Hemorphin 7, reference compound]
- % Kill (CFU-MIX [1]; Table 18, 100 ng/ml): 0%

B1: Human Myoglobin: human myoglobin (protein, UniProt P02144 2-154, looked up)
Myoglobin: GLSDGEWQLVLNVWGKVEADIPGHGQEVLIRLFKGHPETLEKFDKFKHLKSEDEMKASEDLKKHGATVLTALGGILKKKGHHEAEIKPLAQSHATKHKIPVKYLEFISECIIQVLQSKHPGDFGADAQGAMNKALELFRKDMASNYKELGFQG
- stem cell inhibitory activity, in words (CFU-MIX [1]; CFU-MIX cycling assay): inactive
- % Kill (CFU-MIX [2]; [12]): 30%
